Tests used:
rat [1] = details: Subchronic oral toxicity in rodents, Feed, dose end: 3 month, group: systemic
rat [2] = details: Combined chronic toxicity/carcinogenicity, wistar, Oral, Feed, dose end: 24 month, group: systemic
mouse [3] = details: Carcinogenicity, other, Oral, Feed, dose end: 105 week, group: systemic
rat [4] = details: Prenatal developmental toxicity study, Oral, Gavage/Intubation, dose end: 16 GD
dog [5] = details: Chronic toxicity, beagle, Oral, Feed, dose end: 104 week, group: systemic
rat [6] = details: Multigenerational reproductive toxicity study, sprague dawley, Oral, Feed, dose end: 2 generation
dog [7] = details: Subchronic oral toxicity in nonrodent, beagle, Feed, dose end: 13 week, group: systemic, systemic / pathology microscopic / kidney / pyelonephritis
rabbit = details: Prenatal developmental toxicity study, new zealand white, Oral, Gavage/Intubation, dose end: 19 GD
rat [8] = details: Multigenerational reproductive toxicity study, wistar, Oral, Feed, dose end: 2 generation
rat [9] = details: Combined chronic toxicity/carcinogenicity, sprague dawley, Oral, Feed, dose end: 2 year, group: systemic
rat [10] = details: Subchronic oral toxicity in rodents, wistar, [Not Specified], dose end: 90 day, group: systemic
rat [11] = details: Prenatal developmental toxicity study, wistar, Oral, Gavage/Intubation, dose end: 15 GD
dog [12] = details: Chronic toxicity; beagle; Oral; Capsule; dose end: 52 week; group: systemic; systemic / clinical chemistry / alkaline phosphatase (alp/alk) / alkaline phosphatase (alp/alk) + systemic / clinical chemistry / …
mouse [13] = details: Combined chronic toxicity/carcinogenicity, cd1, Oral, Feed, dose end: 2 year, group: systemic
[14] = systemic / clinical chemistry / lipids, total / lipids, total + systemic / organ weight / ovary / relative to body weight + systemic / organ…
[15] = systemic / pathology microscopic / liver / focal cellular change + systemic / pathology microscopic / liver / hypertrophy + systemic / …
[16] = systemic / pathology microscopic / liver / hypertrophy
[17] = group: developmental, developmental / developmental malformation / bone / incomplete ossification + systemic / in life observation / body weight / fetal weight
[18] = group: maternal, reproductive / reproductive performance / postimplantation loss / postimplantation loss + systemic / in life observation / body weight / …
[19] = systemic / in life observation / body weight / body weight + systemic / in life observation / body weight / body weight gain
[20] = group: offspring, developmental / offspring survival late / [other] / [other]
[21] = group: parental, systemic / organ weight / kidney / relative to body weight + systemic / organ weight / spleen / absolute + systemic / organ weight / spleen…
[22] = group: parental, systemic / organ weight / liver / absolute + systemic / organ weight / liver / relative to body weight
[23] = group: developmental, developmental / developmental malformation / bone / short supernumerary + developmental / developmental malformation / bone / full …
[24] = group: maternal, systemic / in life observation / body weight / body weight + systemic / in life observation / body weight / body weight gain + systemic / in…
[25] = group: offspring, systemic / in life observation / clinical signs / red or crusty deposits around eyes, ears, nose, or mouth + systemic / pathology gross / …
[26] = group: parental, systemic / in life observation / body weight / body weight gain + systemic / in life observation / food consumption / food consumption + …
[27] = systemic / clinical chemistry / aminopyrine-n-demethylase / aminopyrine-n-demethylase + systemic / organ weight / liver / absolute + …
[28] = systemic / urinalysis / volume / volume
[29] = group: developmental, developmental / developmental malformation / mouth / jaw / cleft palate
[30] = group: maternal, systemic / in life observation / body weight / body weight gain
[31] = group: maternal, systemic / in life observation / body weight / body weight gain + systemic / in life observation / clinical signs / urogenital staining + …

How did the LEL (rat [1]; [14]) turn out when CCOC(=O)C(C)Oc1ccc(Oc2nc3ccc(Cl)cc3o2)cc1 (stereo unspecified) [Fenoxaprop-ethyl] was run?
Its LEL is 1 mg/kg/day.

And the NEL (rat [1]; [14])?
The NEL was < 1 mg/kg/day.

What about the LOAEL (rat [1]; systemic / organ weight / adrenal gland / relative to body weight) of the same molecule?
Its LOAEL is 4 mg/kg/day.

What about the NOAEL (rat [1]; systemic / organ weight / adrenal gland / relative to body weight + systemic / clinical chemistry / cholesterol / cholesterol + systemic / …) of the same molecule?
The NOAEL was 1 mg/kg/day.

What about the LOAEL (rat [2]; systemic / clinical chemistry / cholesterol / cholesterol + systemic / clinical chemistry / lipids, total / lipids, total) of the same molecule?
The LOAEL was 9 mg/kg/day.

What about the NOAEL (rat [2]; systemic / clinical chemistry / cholesterol / cholesterol + systemic / clinical chemistry / lipids, total / lipids, total + systemic / organ…) of the same molecule?
The NOAEL was 1.5 mg/kg/day.

What about the NEL (rat [2]; systemic / clinical chemistry / cholesterol / cholesterol + systemic / hematology / leukocyte (wbc) count differential / leukocyte (wbc) + …) of the same molecule?
Its NEL is 0.25 mg/kg/day.

And the LEL (rat [2]; systemic / clinical chemistry / cholesterol / cholesterol + systemic / pathology microscopic / liver / glycogen liberation + systemic / …)?
The LEL was 1.5 mg/kg/day.

What about the LOAEL (mouse [3]; [15]) of the same molecule?
The LOAEL was 16.6 mg/kg/day.

And the NOAEL (mouse [3]; [15])?
The NOAEL was 5.7 mg/kg/day.

What about the LEL (mouse [3]; [16]) of the same molecule?
The LEL was 5.7 mg/kg/day.

And the NEL (mouse [3]; [16])?
Its NEL is < 5.7 mg/kg/day.

What about the LEL (rat [4]; [17]) of the same molecule?
The LEL was 100 mg/kg/day.

And the LOAEL (rat [4]; [17])?
Its LOAEL is 100 mg/kg/day.

And the NEL (rat [4]; [17])?
Its NEL is 32 mg/kg/day.

What about the NOAEL (rat [4]; [17]) of the same molecule?
The NOAEL was 32 mg/kg/day.

And the LEL (rat [4]; [18])?
The LEL was 100 mg/kg/day.

What about the LOAEL (rat [4]; [18]) of the same molecule?
The LOAEL was 100 mg/kg/day.

And the NEL (rat [4]; [18])?
The NEL was 32 mg/kg/day.

What about the NOAEL (rat [4]; [18]) of the same molecule?
The NOAEL was 32 mg/kg/day.

And the LEL (dog [5]; systemic / in life observation / body weight / body weight)?
Its LEL is 0.375 mg/kg/day.

What about the LOAEL (dog [5]; [19]) of the same molecule?
Its LOAEL is 1.88 mg/kg/day.

What about the NEL (dog [5]; [19]) of the same molecule?
The NEL was 0.075 mg/kg/day.

And the NOAEL (dog [5]; [19])?
The NOAEL was 0.375 mg/kg/day.

And the LEL (rat [6]; [20])?
The LEL was 0.25 mg/kg/day.

What about the LOAEL (rat [6]; [20]) of the same molecule?
Its LOAEL is 0.25 mg/kg/day.

And the NEL (rat [6]; [20])?
Its NEL is < 0.25 mg/kg/day.

What about the NOAEL (rat [6]; [20]) of the same molecule?
The NOAEL was < 0.25 mg/kg/day.

What about the LEL (rat [6]; [21]) of the same molecule?
The LEL was 1.94 mg/kg/day.

And the NEL (rat [6]; [21])?
The NEL was 0.33 mg/kg/day.

And the LOAEL (rat [6]; [22])?
Its LOAEL is 9.05 mg/kg/day.

What about the NOAEL (rat [6]; [22]) of the same molecule?
The NOAEL was 1.53 mg/kg/day.

What about the LEL (dog [7]) of the same molecule?
Its LEL is 2 mg/kg/day.

What about the LOAEL (dog [7]) of the same molecule?
Its LOAEL is 2 mg/kg/day.

What about the NEL (dog [7]) of the same molecule?
The NEL was 0.4 mg/kg/day.

What about the NOAEL (dog [7]) of the same molecule?
The NOAEL was 0.4 mg/kg/day.

Which LEL (rabbit; [23]) does the source give for CC(C)(C)[C@H](O)[C@H](Cc1ccc(Cl)cc1)n1cncn1 [Paclobutrazol] here?
Its LEL is 125 mg/kg/day.

What about the LOAEL (rabbit; [23]) of the same molecule?
Its LOAEL is 125 mg/kg/day.

And the NEL (rabbit; [23])?
Its NEL is 75 mg/kg/day.

What about the NOAEL (rabbit; [23]) of the same molecule?
Its NOAEL is 75 mg/kg/day.

And the LEL (rabbit; [24])?
Its LEL is 125 mg/kg/day.

And the LOAEL (rabbit; [24])?
Its LOAEL is 125 mg/kg/day.

And the NEL (rabbit; [24])?
Its NEL is 75 mg/kg/day.

And the NOAEL (rabbit; [24])?
Its NOAEL is 75 mg/kg/day.

What about the LEL (rat [8]; [25]) of the same molecule?
Its LEL is 12.5 mg/kg/day.

What about the LOAEL (rat [8]; [25]) of the same molecule?
Its LOAEL is 12.5 mg/kg/day.

What about the NEL (rat [8]; [25]) of the same molecule?
The NEL was 2.5 mg/kg/day.

And the NOAEL (rat [8]; [25])?
The NOAEL was 2.5 mg/kg/day.

What about the NEL (rat [8]; group: parental, systemic / in life observation / body weight / body weight + systemic / in life observation / body weight / body weight gain + systemic / in…) of the same molecule?
Its NEL is 2.5 mg/kg/day.

What about the LOAEL (rat [8]; [26]) of the same molecule?
Its LOAEL is > 62.5 mg/kg/day.

And the NOAEL (rat [8]; [26])?
Its NOAEL is ≥ 62.5 mg/kg/day.

And the LEL (rat [8]; group: parental, systemic / in life observation / clinical signs / red or crusty deposits around eyes, ears, nose, or mouth + systemic / pathology gross / …)?
The LEL was 12.5 mg/kg/day.

And the LEL (rat [9]; systemic / clinical chemistry / triglycerides / triglycerides)?
The LEL was 12.5 mg/kg/day.

What about the LOAEL (rat [9]; [16]) of the same molecule?
Its LOAEL is 62.5 mg/kg/day.

What about the NOAEL (rat [9]; [16]) of the same molecule?
The NOAEL was 12.5 mg/kg/day.

What about the NEL (rat [9]; systemic / pathology microscopic / liver / hypertrophy + systemic / clinical chemistry / triglycerides / triglycerides + systemic / …) of the same molecule?
Its NEL is 2.5 mg/kg/day.

What about the LOAEL (rat [10]; [27]) of the same molecule?
The LOAEL was 62.5 mg/kg/day.

And the NOAEL (rat [10]; [27])?
The NOAEL was 12.5 mg/kg/day.

What about the LEL (rat [10]; [28]) of the same molecule?
The LEL was 2.5 mg/kg/day.

What about the NEL (rat [10]; [28]) of the same molecule?
Its NEL is < 2.5 mg/kg/day.

What about the LOAEL (rat [11]; group: developmental, developmental / developmental malformation / bone / incomplete ossification + developmental / developmental malformation / bone / unossified) of the same molecule?
Its LOAEL is 100 mg/kg/day.

And the NOAEL (rat [11]; group: developmental, developmental / developmental malformation / bone / incomplete ossification + developmental / developmental malformation / bone / unossified…)?
The NOAEL was 40 mg/kg/day.

And the LEL (rat [11]; [29])?
Its LEL is 40 mg/kg/day.

What about the NEL (rat [11]; [29]) of the same molecule?
Its NEL is < 40 mg/kg/day.

And the LEL (rat [11]; [30])?
The LEL was 100 mg/kg/day.

And the LOAEL (rat [11]; [30])?
Its LOAEL is 100 mg/kg/day.

What about the NEL (rat [11]; [31]) of the same molecule?
The NEL was 40 mg/kg/day.

And the NOAEL (rat [11]; [31])?
The NOAEL was 40 mg/kg/day.

And the LEL (dog [12])?
Its LEL is 75 mg/kg/day.

And the LOAEL (dog [12])?
Its LOAEL is 75 mg/kg/day.

And the NEL (dog [12])?
The NEL was 15 mg/kg/day.

And the NOAEL (dog [12])?
Its NOAEL is 15 mg/kg/day.

What about the LEL (mouse [13]; systemic / organ weight / kidney / relative to body weight) of the same molecule?
Its LEL is 18.8 mg/kg/day.

What about the NEL (mouse [13]; systemic / organ weight / kidney / relative to body weight + systemic / organ weight / kidney / absolute + systemic / organ weight / liver…) of the same molecule?
Its NEL is 3.75 mg/kg/day.

What about the LOAEL (mouse [13]; systemic / pathology microscopic / liver / steatosis) of the same molecule?
The LOAEL was 112 mg/kg/day.

And the NOAEL (mouse [13]; systemic / pathology microscopic / liver / steatosis + systemic / organ weight / liver / absolute + systemic / organ weight / liver / …)?
The NOAEL was 18.8 mg/kg/day.

— EPA's ToxRefDB 2
